Measured values reported in US20130065818A1, “Arylamide Compounds And Compositions And Uses Thereof” (POLYMEDIX, priority 2006, published 2013).
≈ marks a conversion by molar mass, not a printed value. Where two headings read alike, the source gives them in different places.

Columns and labels:
E. faecalis ATCC 29212 = assay: MIC, laboratory strains (Example 8); format: cell-based
E. coli D31 = assay: MIC, control bacteria (Example 8); format: cell-based
Procedure: • Mueller-Hinton Broth in tubes was inoculated with 25 ocular isolates of Staphylococcus aureus fluoroquinolone-susceptible, Staphylococcus aureus fluoroquinolone-resistant, Staphylococcus epidermidis (Coagulase-negative Staphylococcus) fluoroquinolone-susceptible, Staphylococcus epidermidis (Coagulase-negative Staphylococcus) fluoroquinolone-resistant, Pseudomonas aeruginosa and Serratia marcescens, plus two controls (Staphylococcus aureus and E. coli) and incubated at 37° C. overnight on a shaker set at 250 rpm.
Control Bacteria—The two control bacteria (Staphylococcus aureus and E. coli) were treated as above.
Control Bacteria Set #1—this set of control bacteria were treated as the Streptococcus pneumoniae, Streptococcus viridans and Moraxella species (including Moraxella catarrhalis) test isolates above; the control bacteria underwent the same conditions as the test Streptococcus pneumoniae, Streptococcus viridans and Moraxella species (including Moraxella catarrhalis) isolates. This set of control bacteria was to determine whether there was a difference in the MICs by performing the MIC determinations in 2% lysed horse red blood cells with the standard method performed in Mueller-Hinton broth.
Control Bacteria Set #2—the control bacteria were added to 5 ml of Mueller-Hinton Broth without the 2% lysed horse red blood cells to achieve the standard inoculum concentration. This set of control bacteria is the normal control to determine whether the compounds are at the target MICs.
Control Bacteria Set #1—this set of control bacteria were treated as the Haemophilus influenzae test isolates above; the control bacteria underwent the same conditions as the test Haemophilus influenzae isolates. This set of control bacteria is to determine whether there was a difference in the MICs by performing the MIC determinations in HTM broth with the standard method performed in Mueller-Hinton broth.
Control Bacteria Set #2—the control bacteria were added to 5 ml of Mueller-Hinton Broth to achieve the standard inoculum concentration. This set of control bacteria is the normal control to determine whether the compounds are at the target MICs.
Ninety μl of the bacterial suspensions was dispensed in each well from column 1 to column 12. Each bacterial isolate was placed in one row of a 96 well polypropylene plate containing the test agents. The plates were placed on shaker at 15 minutes at room temperature, and then incubated at 37° C. overnight. MICs were determined visually as the lowest concentration of drug that inhibits visible bacterial growth.

N=C(N)NCCCCC(=O)Nc1cc(C(F)(F)F)cc(NC(=O)c2cnc(C(=O)Nc3cc(C(F)(F)F)cc(NC(=O)CCCCNC(=N)N)c3SCCN)cn2)c1SCCN [Oligomer 5]
MIC (E. faecalis ATCC 29212): 1.56 µg/mL (≈ 1.7 µM) | Decrease of activity by addition of 2% lysed horse red blood cells to Mueller-Hinton broth (E. coli D31; Control Bacteria E. coli D31): increase or have no effect | Decrease of activity by use of HTM broth (E. coli D31; Control Bacteria E. coli D31): no effect | MIC (E. coli D31; Control Bacteria Set #1, run with Haemophilus influenzae MIC test, read-out: MIC): 16 µg/mL (≈ 17.4 µM) | MIC (E. coli D31; E. coli D31, Control for MIC Test SA-FQR, first batch): 4 µg/mL (≈ 4.36 µM) | MIC (E. coli D31; E. coli D31, Control for MIC Test SA-FQS, first batch): 16 µg/mL (≈ 17.4 µM) | MIC (E. coli D31; E. coli D31, new batches, Control Only 1): 8 µg/mL (≈ 8.72 µM) | MIC (E. coli D31; E. coli D31, new batches, Control Only 2): 8 µg/mL (≈ 8.72 µM) | MIC (E. coli D31; E. coli D31, new batches, Control Only 3): 8 µg/mL (≈ 8.72 µM) | MIC (E. coli D31; E. coli D31, new batches, Control Only 4): 16 µg/mL (≈ 17.4 µM) | MIC (E. coli D31; Escherichia coli, D31, Control Bacteria Set #1, run with Moraxella MIC test, read-out: MIC): 2 µg/mL (≈ 2.18 µM) | MIC (E. coli D31; Escherichia coli, D31, Control Only 1, read-out: MIC of control bacteria on day of MIC testing): 8 µg/mL | MIC (E. coli D31; Escherichia coli, D31, Control Only 2, read-out: MIC of control bacteria on day of MIC testing): 8 µg/mL | MIC (E. coli D31; Escherichia coli, D31, Control Only 3, read-out: MIC of control bacteria on day of MIC testing): 8 µg/mL | MIC (E. coli D31; Escherichia coli, D31, Control Only 4, read-out: MIC of control bacteria on day of MIC testing): 16 µg/mL | MIC (E. coli D31; Escherichia coli, D31, E. coli D31, Control Bacteria Set #1 (same conditions as test isolates), run with Streptococcus pneumoniae MIC test, read-out: MIC): 2 µg/mL (≈ 2.18 µM) | MIC (E. coli D31; Escherichia coli, D31, E. coli D31, Control Bacteria Set #1 (same conditions as test isolates), run with Streptococcus viridans group MIC test, read-out: MIC): 2 µg/mL (≈ 2.18 µM) | MIC (E. coli D31; Escherichia coli, D31, E. coli D31, Control Bacteria Set #2 (Mueller-Hinton Broth), run with Streptococcus pneumoniae MIC test, read-out: MIC): 16 µg/mL (≈ 17.4 µM) | MIC (E. coli D31; Escherichia coli, D31, E. coli D31, Control Bacteria Set #2 (Mueller-Hinton Broth), run with Streptococcus viridans group MIC test, read-out: MIC): 16 µg/mL (≈ 17.4 µM) | MIC (E. coli D31; Escherichia coli, D31, E. coli D31, control bacteria run with Pseudomonas aeruginosa MIC test, read-out: MIC): 8 µg/mL (≈ 8.72 µM) | MIC (E. coli D31; Escherichia coli, D31, E. coli D31, control bacteria run with S. aureus fluoroquinolone-resistant MIC test, read-out: MIC): 4 µg/mL (≈ 4.36 µM) | MIC (E. coli D31; Escherichia coli, D31, E. coli D31, control bacteria run with S. aureus fluoroquinolone-susceptible MIC test, read-out: MIC): 16 µg/mL (≈ 17.4 µM) | MIC (E. coli D31; Escherichia coli, D31, E. coli D31, control bacteria run with S. epidermidis fluoroquinolone-resistant MIC test, read-out: MIC): 4 µg/mL (≈ 4.36 µM) | MIC (E. coli D31; Escherichia coli, D31, E. coli D31, control bacteria run with S. epidermidis fluoroquinolone-susceptible MIC test, read-out: MIC): 4 µg/mL (≈ 4.36 µM) | MIC (E. coli D31; Escherichia coli, D31, E. coli D31, control bacteria run with Serratia marcescens MIC test, read-out: MIC): 4 µg/mL (≈ 4.36 µM) | MIC (E. coli D31; Escherichia coli, D31, E. coli D31, MIC previously obtained (target MIC), printed in parentheses, read-out: MIC for Control Bacteria within the parentheses): 1.56 µg/mL (≈ 1.7 µM) | MIC (E. coli D31; Escherichia coli, D31, E. coli D31, read-out: MIC): 1.56 µg/mL (≈ 1.7 µM) | MIC (E. coli D31; Escherichia coli, D31, control for MIC test HI (Control Bacteria Set #2), read-out: MIC of control bacteria on day of MIC testing): 16 µg/mL | MIC (E. coli D31; Escherichia coli, D31, control for MIC test MS (Control Bacteria Set #2), read-out: MIC of control bacteria on day of MIC testing): 16 µg/mL | MIC (E. coli D31; Escherichia coli, D31, control for MIC test PA, read-out: MIC of control bacteria on day of MIC testing): 8 µg/mL | MIC (E. coli D31; Escherichia coli, D31, control for MIC test SA-FQR, read-out: MIC of control bacteria on day of MIC testing): 4 µg/mL | MIC (E. coli D31; Escherichia coli, D31, control for MIC test SA-FQS, read-out: MIC of control bacteria on day of MIC testing): 16 µg/mL | MIC (E. coli D31; Escherichia coli, D31, control for MIC test SE-FQR, read-out: MIC of control bacteria on day of MIC testing): 4 µg/mL | MIC (E. coli D31; Escherichia coli, D31, control for MIC test SE-FQS, read-out: MIC of control bacteria on day of MIC testing): 4 µg/mL | MIC (E. coli D31; Escherichia coli, D31, control for MIC test SM, read-out: MIC of control bacteria on day of MIC testing): 4 µg/mL | MIC (E. coli D31; Escherichia coli, D31, control for MIC test SP, read-out: MIC of control bacteria on day of MIC testing): 16 µg/mL | MIC (E. coli D31; Escherichia coli, D31, control for MIC test SV, read-out: MIC of control bacteria on day of MIC testing): 16 µg/mL | MIC (E. coli D31; Escherichia coli, D31, reference MIC printed in parentheses beside the day's control value, read-out: MIC for Control Bacteria (within the parentheses)): 1.56 µg/mL (≈ 1.7 µM)
